These results are taken from patent publication EP2062893A1, “Fused imidazoles for cancer treatment” (Bayer Schering Pharma AG, priority 2007, dated 2009).

Type in all cases: cell-based
Experiment [1] concerns phosphorylated Akt protein. Description: Cellular PI3K / Akt pathway assay (phospho-Akt Ser473 sandwich ELISA). To be noted: Homo sapiens; MCF7 cells, ß-Heregulin (20ng/ml) stimulation, 48h incubation. The protocol: In order to study the cellular activity of the compounds according to the present invention, an Enzyme Linked Immunosorbent Assay (ELISA)-based assay has been used specific phospho-AKT. The assay is based on a Sandwich ELISA kit (PathScan™ Phospho-Akt1 (Ser473); Cell Signaling, USA; #7160). The ELISA Kit detects endogenous levels of phosphorylated Akt protein. A phospho-Akt (Ser473) antibody (Cell Signaling, USA; #9271) has been coated onto the microwells. After incubation with cell lysates, the coated antibody captures the phosphorylated Akt protein. Following extensive washing, Akt1 monoclonal antibody (Cell Signaling, USA; #2967) is added to detect the captured phospho-Akt1 protein. HRP-linked anti-mouse antibody (HRP: horseradish peroxidase; Cell Signaling, USA; #7076) is then used to recognize the bound detection antibody. HRP substrate (= 3,3',5,5'-tetramethylbenzidine (TMB); Cell Signaling, USA; #7160) is added to develop colour. The magnitude of optical density for this developed color is proportional to the quantity of phosphorylated Akt protein. MCF7 cells (ATCC HTB-22) are seeded into 96 well fate bottom plates at a density of 10000 cells/well. 24 hours after seeding, the cells are serum starved using low-serum medium (IMEM media including 0,1% charcoal treated FCS (FCS: fetal calf serum)). […] To stimulate Akt phosphorylation, ß-Heregulin (20ng/ml ß-HRG) is added in parallel to the compounds. Wells containing unstimulated control cells (no ß-Heregulin stimulation) are incubated with or without the diluted compound. Wells containing untreated control cells (no compound) are filled with medium containing 0.5% v:v DMSO and are or are not stimulated with ß-Heregulin. Cells are harvested and lysed with brief sonification in 1x cell lysis buffer (20mM Tris (pH7.5), 150 mM NaCl, 1 mM ethylene diaminetetraacetate (EDTA), 1 mM ethylene glycolbis(2-aminoethyl)-N,N,N',N'-tetraacetic acid (EGTA), 1vol% Triton X-100, 2.5mM sodium pyrophosphate, 1 mM β-glycerolphosphate, 1 mM Na3VO4, 1µg/ml leupeptin). The lysate is centrifuged for 10 min. at 4°C and the supernatant is transferred to a new tube. 100 µl of sample diluent (0.1vol% Tween-20, 0.1vol% sodium azide in phosphate buffered saline (PBS)) are added to a microcentrifuge tube and 100 µl of cell lysate are transferred into the tube and vortexed. 100 µl of each diluted cell lysate are added to the appropriate ELISA well, and incubated overnight at 4°C. The plates are washed 4 times with 1x wash buffer (1vol% tween-20, 0.33vol% thymol, in PBS). Next 100 µl of detection antibody (Akt1 (2H10) monoclonal detection antibody; Cell Signaling, USA; #2967) are added to each well and incubation continued for 1h at 37°C. The washing procedure is repeated between each step. 100µl of secondary antibody (anti-mouse IgG HRP-linked antibody; Cell Signaling, USA; #7076) are added to each well and incubated for 30 min. at 37°C. Than, 100µl of TMB substrate (0.05% 3,3',5,5' tetramethylbenzidine, 0.1 % hydrogen peroxide, complex polypeptides in a buffered solution; Cell Signaling, USA; #7160) are added to each well and incubated for 30 min. at 25°C. Finally 100 µl of STOP solution (0.05vol% α and β unsaturated carbonyl compound) are added to each well and the plate are shaked gently. The absorbance is measured at λ =450 nm (Wallac Victor2; Perkin Elmer, USA) within 30 min. after adding the STOP solution. The analysis of the data is performed using a statistical program (Excel; Microsoft, USA). Preferred compounds show an inhibitory activity towards Akt phosphorylation below 10µM.

The subject of experiment [2] is phosphorylated GSK3. Description: Cellular pGSK3 assay (phospho-GSK3 Ser9 sandwich ELISA). The note with it: Homo sapiens; MCF7 cells, 48h incubation, IC50 of pGSK3 inhibition. The method, then:
In order to study the cellular activity of the compounds according to the present invention, an ELISA-based assay has been established for the phosphorylated protein glycogen synthetase kinase 3 (GSK3). The assay is based on a solid phase sandwich ELISA that detects endogenous levels of phosphorylated GSK3 using a phospho-GSK3 (Ser9) specific antibody (BioSource International, Inc.; Catalog #KHO0461). After incubation with cell lysates, the coated antibody captures the phosphorylated GSK3 protein. Following extensive washing, GSK3 polyclonal antibody is added to detect the captured phospho-GSK3 protein. Secondary antibody (anti-rabbit IgG-HRP) is then used to recognize the bound detection antibody. After the second incubation and washing to remove all the excess anti-rabbit IgG-HRP, a substrate solution is added, which is acted upon by the bound enzyme to produce color. The intensity of this colored product is directly proportional to the concentration of GSK-3β [pS9] present in the original specimen. MCF7 cells (ATCC HTB-22) were seeded into 96 well fate bottom plates at a density of 10000 cells/well. After 24 h 1 µl each of the compound dilutions (test compounds were dissolved as 10 mM solutions in dimethylsulfoxide (DMSO) and subsequently diluted) were added into each well of the 96 well plates and incubated for 48h at 37°C in a humidified athmosphere containing 5% CO2. Cells were harvested and lysed in cell extraction buffer (10 mM Tris, pH 7.4, 100 mM NaCl, 1 mM EDTA, 1 mM EGTA, 1 mM NaF, 20 mM Na4P2O7, 2 mM Na3VO4, 1% Triton X-100, 10vol% glycerol, 0.1vol% SDS, 0.5vol% deoxycholate, 1 mM phenylmethylsulfonylfluorid (PMSF)). The lysate were centrifuged for 10 min. at 4°C and the supernatant were transferred to a new tube. 50 µl of sample diluent (standard diluent buffer, Biosource) were added and 100 µl of cell lysate transferred into the tube and vortexed. 100 µl of each diluted cell lysate were added to the appropriate ELISA well plate and incubated for 3h at room temperature. The plates were washed 4 times with 1x wash buffer (Biosource). 50 µl of detection antibody (GSK3 (Ser9) detection antibody; BioSource) were added to each well and incubated for 30 min. at room temperature. The washing procedure was repeated between each step. 100µl of HRP-linked secondary antibody (anti-mouse IgG HRP-linked antibody) were added to each well and incubated for 30 min. at room temperature. 100µl of TMB substrate (0.05vol% 3,3',5,5' tetramethylbenzidine, 0.1vol% hydrogen peroxide, complex polypeptides in a buffered solution; Biosource) were added to each well and incubated for 30 min. at room temperature. Finally 100 µl of Stop solution (0.05vol% α and β unsaturated carbonyl compound) were added to each well and the plate were shaked gently for a few seconds. The absorbance was measured at λ = 450 nm (Wallac Victor2; Perkin Elmer, USA) within 30 min. after adding the stop solution. The analysis of the data was performed using a statistical program (Excel; Microsoft, USA) and the IC50 of pGSK3 inhibition was determined.
In general terms: ELISA stands for enzyme-linked immunosorbent assay.

Experiment [3] deals with OvCAR3 cells. Description: Cellular proliferation / Cytotoxicity assay (Alamar Blue / Resazurin cell viability). The note with it: Homo sapiens, OVCAR-3, 48h incubation, read-out: Anti-proliferative / Cytotoxic activity (OvCAR3 cells). The protocol: Wells containing untreated control cells were filled with 200 µl DMEM (Dulbecco's Modified Eagle Medium) containing 0.5vol% v:v DMSO. The cells are then incubated with the substances for 48h at 37°C in a humidified atmosphere containing 5vol% CO2. To determine the viability of the cells, 20 µl of a Resazurin solution (90mg / I) are added. […] Viabilities are expressed as % values.

Regarding `Brc1ccc2nc(-c3ccc(CN4CCC(c5n[nH]c(-c6ccccn6)n5)CC4)cc3)c(-c3ccccc3)n2c1` [Example 6, 6-bromo-3-phenyl-2-(4-{[4-(5-pyridin-2-yl-1,2,4-triazol-3-yl)piperidin-1-yl]methyl}phenyl)imidazo[1,2-a]pyridine], the IC50 is < 1 µM in experiment [1], 1 to 10 µM in experiment [2] and < 10 µM in experiment [3].

On to `Clc1ccc2nc(-c3ccc(CN4CCC(c5nnc(-c6ccccn6)[nH]5)CC4)cc3)c(-c3ccccc3)n2c1` [Example 7, 6-chloro-3-phenyl-2-(4-{[4-(5-pyridin-2-yl-4H-1,2,4-triazol-3-yl)piperidin-1-yl]methyl}phenyl)imidazo[1,2-a]pyridine], for which the IC50 is < 1 µM in experiment [1], 1 to 10 µM in experiment [2] and < 10 µM in experiment [3].

With `Cc1cccn2c(-c3ccccc3)c(-c3ccc(CN4CCC(c5n[nH]c(-c6ccccn6)n5)CC4)cc3)nc12` [Example 8, 8-methyl-3-phenyl-2-(4-{[4-(5-pyridin-2-yl-1,2,4-triazol-3-yl)piperidin-1-yl]methyl}phenyl)imidazo[1,2-a]pyridine], the results for the IC50 in experiment [1], in experiment [2] and in experiment [3] were < 1 µM, 1 to 10 µM and < 10 µM, respectively.

Consider `Fc1ccc(-c2c(-c3ccc(CN4CCC(c5n[nH]c(-c6ccccn6)n5)CC4)cc3)nc3ccccn23)cc1` [Example 9, 3-(4-fluorophenyl)-2-(4-{[4-(5-pyridin-2-yl-1,2,4-triazol-3-yl)piperidin-1-yl]methyl}phenyl)imidazo[1,2-a]pyridine], for which the IC50 was 1 to 10 µM in experiment [1], 1 to 10 µM in experiment [2] and > 10 µM in experiment [3].

As for `c1ccc(-c2c(-c3ccc(CN4CCC(c5n[nH]c(-c6ccccn6)n5)CC4)cc3)nc3sccn23)cc1` [Example 10, 5-phenyl-6-(4-{[4-(5-pyridin-2-yl-1,2,4-triazol-3-yl)piperidin-1-yl]methyl}phenyl)imidazo[2,1-b][1,3]thiazole], the IC50 in experiment [1] was < 1 µM; in experiment [2], < 1 µM; in experiment [3], < 10 µM.

As to `c1ccc(-c2c(-c3ccc(CN4CCC(c5n[nH]c(-c6ccccn6)n5)CC4)cc3)nc3scnn23)cc1` [Example 11, 5-phenyl-6-(4-{[4-(5-pyridin-2-yl-1,2,4-triazol-3-yl)piperidin-1-yl]methyl}phenyl)imidazo[2,1-b][1,3,4]thiadiazole], the IC50 in experiment [1] is < 1 µM; in experiment [2] it was 1 to 10 µM; in experiment [3], < 10 µM.

As for `Brc1cnc2nc(-c3ccc(CN4CCC(c5n[nH]c(-c6ccccn6)n5)CC4)cc3)c(-c3ccccc3)n2c1` [Example 12, 6-bromo-3-phenyl-2-(4-{[4-(5-pyridin-2-yl-1,2,4-triazol-3-yl)piperidin-1-yl]methyl}phenyl)imidazo[1,2-a]pyrimidine], the IC50 in experiment [1] is < 1 µM; in experiment [2] it was < 1 µM; in experiment [3], < 10 µM.

For the molecule `COc1cccn2c(-c3ccccc3)c(-c3ccc(CN4CCC(c5n[nH]c(-c6ccccn6)n5)CC4)cc3)nc12` [Example 13, 8-methoxy-3-phenyl-2-(4-{[4-(5-pyridin-2-yl-1,2,4-triazol-3-yl)piperidin-1-yl]methyl}phenyl)imidazo[1,2-a]pyridine], the IC50 in experiment [1] was < 1 µM; in experiment [2], 1 to 10 µM; in experiment [3], < 10 µM.

With `Fc1cccc(-c2c(-c3ccc(CN4CCC(c5n[nH]c(-c6ccccn6)n5)CC4)cc3)nc3ccccn23)c1` [Example 14, 3-(3-fluorophenyl)-2-(4-{[4-(5-pyridin-2-yl-1,2,4-triazol-3-yl)piperidin-1-yl]methyl}phenyl)imidazo[1,2-a]pyridine], the IC50 in experiment [1] was < 1 µM; in experiment [2] it was 1 to 10 µM; in experiment [3], < 10 µM.

`COc1ccc(-c2c(-c3ccc(CN4CCC(c5n[nH]c(-c6ccccn6)n5)CC4)cc3)nc3ccccn23)cc1` [Example 15, 3-(4-methoxyphenyl)-2-(4-{[4-(5-pyridin-2-yl-1,2,4-triazol-3-yl)piperidin-1-yl]methyl}phenyl)imidazo[1,2-a]pyridine]: the IC50 is > 10 µM in experiment [1], 1 to 10 µM in experiment [2] and > 10 µM in experiment [3].
